How the values were obtained:
Type in all cases: biochemical
PI3K-alpha = PI3K-alpha (Homo sapiens, UniProt P42336); assay: PI3K-alpha fluorescence polarization assay; conditions: read-out: PI3 Kinase α IC50
Experimental: (§1) The reaction buffer was 20 mM HEPES, pH 7.5, 2 mM MgCl2, 0.05% CHAPS; and 0.01% βME (added fresh). The Stop/Detection Buffer was 100 mM HEPES, pH 7.5, 4 mM EDTA, 0.05% CHAPS; ATP 20 mM in water; PIP2 (diC8, Echelon, Salt Lake City Utah cat #P-4508) 1 mM in water (MW=856.5). The GST-GRP was 1.75 mg/mL or 1.4 mg/mL in 10% glycerol. The Red detector (TAMRA) was 2.5 μM. Nunc 384-well black polypropylene fluorescent plates were used for PI3K assays.
(§2) The assay is run by placing 5 μL of diluted enzyme per well, then 5 μL of diluted compound (or 9.5 μL enzyme then 0.5 μL compound in DMSO) is added and mixed. Then, 10 μL substrate is added to start the reaction. The samples are incubated 30-60 minutes, then the reaction is stopped by adding 20 μL stop/detector mix. PI3K is diluted with reaction buffer (e.g., 5 μL or 7.5 μL PI3K into 620 μL reaction buffer), and 5 μL of diluted enzyme is used per well. A 5 μL portion of reaction buffer or of drug diluted in buffer (e.g., 4 μL/100 so final DMSO is 1% in reaction) is added to each. Pipetting up and down mixes the samples. Alternatively, the enzyme can be diluted to 1215 μL. In this case 9.8 μL is added per well and 0.2 μL compound is added in DMSO.
(§3) To prepare 1 mL of substrate solution, 955 μL reaction buffer, 40 μL PIP2, and 2.5 μL ATP are mixed. 10 μL of substrate is added to each well to start the reaction. […] The stop/detector mix is prepared by mixing 4 μL Red detector and 1.6 μL or 2.0 μL GST-GRP with 1 mL stop buffer, which results in 10 nM probe and 70 nM GST-GRP. 20 μL of the stop/detector mix is added to each well to stop the reaction. The plates are read after 30-90 minutes keeping the red probe solutions dark. For the zero time point, stop/detector mix is added to the enzyme just before adding substrate. For an extra control, stop/detector mix is added to buffer (no enzyme) and substrate or to just buffer (no substrate). […] The recommended reaction has 0.06 μL per 20 μL (0.015 μg/20 μL) or 0.01125 μg/15 μL or 0.75 μg/mL.
(§4) Plates are read on machines with filters for TAMRA. The units are mP with no enzyme controls reading app 190-220 mP units. Fully active enzyme reduces fluorescence polarization down to 70-100 mP after 30 minutes. An active compound raises the mP values halfway to control or to 120-150 mP units.

Human mTOR = Human mTOR (Homo sapiens, UniProt P42345); assay: mTOR kinase assay (DELFIA format, purified enzyme); parameters: FLAG; conditions: read-out: TOR Kinase IC50
PI3K-gamma = PI3K-gamma (Homo sapiens, UniProt P48736); assay: PI3K-gamma fluorescence polarization assay; conditions: read-out: PI3 Kinase γ IC50
Chain of PI3K-gamma (P48736 whole entry, species assumed): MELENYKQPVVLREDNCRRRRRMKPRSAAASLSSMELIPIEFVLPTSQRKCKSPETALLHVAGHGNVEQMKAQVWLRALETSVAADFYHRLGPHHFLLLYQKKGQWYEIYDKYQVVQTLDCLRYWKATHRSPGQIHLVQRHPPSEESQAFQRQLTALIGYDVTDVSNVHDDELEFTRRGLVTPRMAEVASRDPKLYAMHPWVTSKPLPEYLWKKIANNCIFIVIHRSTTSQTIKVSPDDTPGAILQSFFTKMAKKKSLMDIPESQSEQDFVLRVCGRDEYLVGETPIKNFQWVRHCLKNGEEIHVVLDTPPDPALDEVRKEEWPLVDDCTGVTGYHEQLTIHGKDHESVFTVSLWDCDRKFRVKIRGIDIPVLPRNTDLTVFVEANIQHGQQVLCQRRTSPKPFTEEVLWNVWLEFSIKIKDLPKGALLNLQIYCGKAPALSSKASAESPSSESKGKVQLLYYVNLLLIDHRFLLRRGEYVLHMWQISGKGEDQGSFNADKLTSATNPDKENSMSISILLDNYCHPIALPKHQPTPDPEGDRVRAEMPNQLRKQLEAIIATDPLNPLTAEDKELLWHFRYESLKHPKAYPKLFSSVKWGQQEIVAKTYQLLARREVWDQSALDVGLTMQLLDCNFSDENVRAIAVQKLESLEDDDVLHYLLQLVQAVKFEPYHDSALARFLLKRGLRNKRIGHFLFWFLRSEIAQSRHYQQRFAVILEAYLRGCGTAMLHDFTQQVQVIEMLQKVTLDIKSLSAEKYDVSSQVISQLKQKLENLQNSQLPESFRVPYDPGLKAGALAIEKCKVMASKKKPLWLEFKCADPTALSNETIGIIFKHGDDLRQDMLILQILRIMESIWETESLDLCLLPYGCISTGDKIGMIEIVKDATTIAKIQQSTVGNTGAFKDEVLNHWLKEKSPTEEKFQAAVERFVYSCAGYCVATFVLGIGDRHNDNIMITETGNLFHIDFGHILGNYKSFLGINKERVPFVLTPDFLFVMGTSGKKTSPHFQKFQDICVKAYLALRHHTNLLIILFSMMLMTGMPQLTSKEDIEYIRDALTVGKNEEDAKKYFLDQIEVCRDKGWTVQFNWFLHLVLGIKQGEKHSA
Experimental: as §1, §2, §3, §4

Chain of PI3K-alpha (P42336 whole entry, species assumed): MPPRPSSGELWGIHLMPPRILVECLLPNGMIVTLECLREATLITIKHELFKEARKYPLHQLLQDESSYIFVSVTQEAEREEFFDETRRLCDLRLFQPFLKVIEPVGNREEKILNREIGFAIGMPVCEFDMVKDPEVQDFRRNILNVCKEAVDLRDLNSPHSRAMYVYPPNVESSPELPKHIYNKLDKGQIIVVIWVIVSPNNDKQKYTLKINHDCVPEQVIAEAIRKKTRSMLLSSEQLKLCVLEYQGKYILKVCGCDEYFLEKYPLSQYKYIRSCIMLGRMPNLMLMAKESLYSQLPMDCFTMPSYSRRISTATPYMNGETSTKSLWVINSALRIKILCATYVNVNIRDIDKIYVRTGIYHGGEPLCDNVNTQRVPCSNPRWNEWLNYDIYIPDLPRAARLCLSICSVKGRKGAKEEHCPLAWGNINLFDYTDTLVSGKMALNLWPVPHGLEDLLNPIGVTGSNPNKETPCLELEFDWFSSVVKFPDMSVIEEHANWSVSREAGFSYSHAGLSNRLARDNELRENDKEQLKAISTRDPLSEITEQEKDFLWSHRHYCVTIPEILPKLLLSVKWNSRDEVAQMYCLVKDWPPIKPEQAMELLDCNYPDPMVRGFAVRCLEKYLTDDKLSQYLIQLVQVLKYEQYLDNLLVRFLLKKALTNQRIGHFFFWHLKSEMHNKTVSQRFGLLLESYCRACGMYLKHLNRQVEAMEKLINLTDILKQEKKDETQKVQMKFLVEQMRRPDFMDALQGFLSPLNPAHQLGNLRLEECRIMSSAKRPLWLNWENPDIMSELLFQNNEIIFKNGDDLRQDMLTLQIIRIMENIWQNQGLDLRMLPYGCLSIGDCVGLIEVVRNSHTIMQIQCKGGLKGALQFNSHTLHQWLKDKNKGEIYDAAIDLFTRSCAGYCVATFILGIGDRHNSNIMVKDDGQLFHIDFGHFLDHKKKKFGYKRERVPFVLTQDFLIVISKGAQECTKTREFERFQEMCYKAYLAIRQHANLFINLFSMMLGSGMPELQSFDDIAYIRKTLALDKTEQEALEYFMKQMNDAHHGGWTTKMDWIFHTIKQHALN
Chain of PI3K-alpha (P27986 whole entry partner, species assumed): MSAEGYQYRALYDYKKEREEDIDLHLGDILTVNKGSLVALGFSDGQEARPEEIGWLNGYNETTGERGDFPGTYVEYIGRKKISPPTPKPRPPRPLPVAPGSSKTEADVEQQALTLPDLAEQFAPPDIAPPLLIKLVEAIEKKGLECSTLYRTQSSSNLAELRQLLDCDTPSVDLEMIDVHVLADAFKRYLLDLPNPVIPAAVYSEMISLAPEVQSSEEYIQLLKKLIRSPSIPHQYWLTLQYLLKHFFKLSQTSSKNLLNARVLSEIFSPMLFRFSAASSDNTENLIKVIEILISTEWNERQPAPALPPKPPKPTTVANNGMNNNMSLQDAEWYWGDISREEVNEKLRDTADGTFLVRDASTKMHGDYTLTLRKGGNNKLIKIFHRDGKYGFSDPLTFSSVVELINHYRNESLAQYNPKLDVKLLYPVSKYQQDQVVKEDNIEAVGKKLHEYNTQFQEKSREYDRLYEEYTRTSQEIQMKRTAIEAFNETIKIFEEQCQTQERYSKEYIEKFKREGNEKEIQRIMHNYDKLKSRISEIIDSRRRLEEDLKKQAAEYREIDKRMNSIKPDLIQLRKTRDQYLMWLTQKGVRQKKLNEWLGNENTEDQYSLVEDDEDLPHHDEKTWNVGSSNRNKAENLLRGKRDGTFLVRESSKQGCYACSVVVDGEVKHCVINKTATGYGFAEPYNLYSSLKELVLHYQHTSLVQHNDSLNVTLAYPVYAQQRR

Compound | IC50 (PI3K-alpha) | IC50 (Human mTOR) | IC50 (PI3K-gamma)
Cn1ccc2c3nc(-c4ccc(NC(=O)Nc5cccc(Cl)c5)cc4)nc(N4CCOCC4)c3ccc21 [Example 13, 1-(3-chlorophenyl)-3-[4-(7-methyl-4-morpholin-4-yl-7H-pyrrolo[2,3-h]quinazolin-2-yl)phenyl]urea] | 62 nM | 260 nM | 234 nM
CS(=O)(=O)n1ccc2c3nc(-c4cccc(CO)c4)nc(N4CCOCC4)c3ccc21 [Example 74, {3-[7-(methylsulfonyl)-4-morpholin-4-yl-7H-pyrrolo[2,3-h]quinazolin-2-yl]phenyl}methanol] | 212 nM | 545 nM | 1190 nM
C=CC(O)c1cccc(-c2nc(N3CCOCC3)c3ccc4c(ccn4C)c3n2)c1 (stereo not shown) [Example 26, 1-[3-(7-methyl-4-morpholin-4-yl-7H-pyrrolo[2,3-h]quinazolin-2-yl)phenyl]prop-2-en-1-ol] | 5420 nM | 2100 nM | > 10000 nM
CC(C)N1CCC(S(=O)(=O)n2ccc3c4nc(-c5ccc(NC(=O)Nc6ccncc6)cc5)nc(N5CCOCC5)c4ccc32)CC1 [Example 65, 1-(4-{7-[(1-isopropylpiperidin-4-yl)sulfonyl]-4-morpholin-4-yl-7H-pyrrolo[2,3-h]quinazolin-2-yl}phenyl)-3-pyridin-4-ylurea] | 48 nM | 73 nM | 300 nM
c1cc(-c2nc(N3CCOCC3)c3ccc4[nH]ccc4c3n2)c2cn[nH]c2c1 [Example 80, 2-(1H-indazol-4-yl)-4-morpholin-4-yl-7H-pyrrolo[2,3-h]quinazoline] | 10300 nM | 2080 nM | > 10000 nM
CN(C)CCn1ccc2c3nc(-c4cccc(OCc5ccccc5)c4)nc(N4CCOCC4)c3ccc21 [Example 31, 2-{2-[3-(benzyloxy)phenyl]-4-morpholin-4-yl-7H-pyrrolo[2,3-h]quinazolin-7-yl}-N,N-dimethylethanamine] | 4030 nM | > 20000 nM | 2480 nM
O=S(=O)(c1ccccc1)n1ccc2c3nc(-c4cccc(CO)c4)nc(N4CCOCC4)c3ccc21 [Example 70, {3-[4-morpholin-4-yl-7-(phenylsulfonyl)-7H-pyrrolo[2,3-h]quinazolin-2-yl]phenyl}methanol] | 168 nM | 5800 nM | 2070 nM
Cn1ccc2c3nc(-c4cccc(O)c4)nc(N4CCOCC4)c3ccc21 [Example 35, 3-(7-methyl-4-morpholin-4-yl-7H-pyrrolo[2,3-h]quinazolin-2-yl)phenol] | 174 nM | 410 nM | 2230 nM
Cn1ccc2c3nc(-c4cncc(O)c4)nc(N4CCOCC4)c3ccc21 [Example 78, 5-(7-methyl-4-morpholin-4-yl-7H-pyrrolo[2,3-h]quinazolin-2-yl)pyridin-3-ol] | 73 nM | 305 nM | 390 nM
Cn1ccc2c3nc(-c4cc(O)ccc4Cl)nc(N4CCOCC4)c3ccc21 [Example 53, 4-chloro-3-(7-methyl-4-morpholin-4-yl-7H-pyrrolo[2,3-h]quinazolin-2-yl)phenol] | 214 nM | 910 nM | 1010 nM
2-(1H-indol-4-yl)-7-methyl-4-morpholin-5-yl-7H-pyrrolo[2,3-h]quinazoline [Example 49] | 6310 nM | 340 nM | 4660 nM
Nc1ncc(-c2nc(N3CCOCC3)c3ccc4[nH]ccc4c3n2)cn1 [Example 58, -(4-morpholin-4-yl-7H-pyrrolo[2,3-h]quinazolin-2-yl)pyrimidin-2-amine] | 102 nM | 155 nM | 471 nM
CN(C)CCn1ccc2c3nc(-c4cccc(O)c4)nc(N4CCOCC4)c3ccc21 [Example 32, 3-{7-[2-(dimethylamino)ethyl]-4-morpholin-4-yl-7H-pyrrolo[2,3-h]quinazolin-2-yl}phenol] | 322 nM | 4550 nM | 3620 nM
Cn1ccc2c3nc(-c4ccc(NC(=O)NCc5ccccn5)cc4)nc(N4CCOCC4)c3ccc21 [Example 15, 1-[4-(7-methyl-4-morpholin-4-yl-7H-pyrrolo[2,3-h]quinazolin-2-yl)phenyl]-3-(pyridin-2-ylmethyl)urea] | 2520 nM | 2150 nM | 3310 nM
CCCNC(=O)Nc1ccc(-c2nc(N3CCOCC3)c3ccc4c(ccn4C)c3n2)cc1 [Example 54, 1-[4-(7-methyl-4-morpholin-4-yl-7H-pyrrolo[2,3-h]quinazolin-2-yl)phenyl]-3-propylurea] | – | 21 nM | –
Cn1ccc2c3nc(-c4cccc5[nH]ccc45)nc(N4CCOCC4)c3ccc21 [Example 45, 2-(1H-indol-4-yl)-7-methyl-4-morpholin-4-yl-7H-pyrrolo[2,3-h]quinazoline] | 2460 nM | 1130 nM | 2830 nM
Cn1ccc2c3nc(-c4cnc(O)nc4)nc(N4CCOCC4)c3ccc21 [Example 51, 5-(7-methyl-4-morpholin-4-yl-7H-pyrrolo[2,3-h]quinazolin-2-yl)pyrimidin-2-ol] | > 10000 nM | – | > 10000 nM
COc1ccc(-c2nc(N3CCOCC3)c3ccc4c(ccn4C)c3n2)cn1 [Example 47, 2-(6-methoxypyridin-3-yl)-7-methyl-4-morpholin-4-yl-7H-pyrrolo[2,3-h]quinazoline] | > 10000 nM | 2050 nM | > 10000 nM
CN(C)CCCNC(=O)Nc1ccc(-c2nc(N3CCOCC3)c3ccc4c(ccn4C)c3n2)cc1 [Example 5, 1-[3-(dimethylamino)propyl]-3-[4-(7-methyl-4-morpholin-4-yl-7H-pyrrolo[2,3-h]quinazolin-2-yl)phenyl]urea] | 2700 nM | 2050 nM | –
Cn1ccc2c3nc(-c4cccc(F)c4)nc(N4CCOCC4)c3ccc21 [Example 52, 2-(3-fluorophenyl)-7-methyl-4-morpholin-4-yl-7H-pyrrolo[2,3-h]quinazoline] | 8880 nM | – | 3660 nM
CN1CCN(C(=O)Nc2ccc(-c3nc(N4CCOCC4)c4ccc5c(ccn5C)c4n3)cc2)CC1 [Example 6, 4-methyl-N-[4-(7-methyl-4-morpholin-4-yl-7H-pyrrolo[2,3-h]quinazolin-2-yl)phenyl]piperazine-1-carboxamide] | 7630 nM | 2550 nM | –
Cn1ccc2c3nc(-c4ccc(N)cc4)nc(N4CCOCC4)c3ccc21 [Example 1, 4-(7-methyl-4-morpholin-4-yl-7H-pyrrolo[2,3-h]quinazolin-2-yl)aniline] | 6480 nM | 805 nM | –
Cn1ccc2c3nc(-c4ccc(C(=O)O)cc4)nc(N4CCOCC4)c3ccc21 [Example 38, 4-(7-methyl-4-morpholin-4-yl-7H-pyrrolo[2,3-h]quinazolin-2-yl)benzoic acid] | – | 4000 nM | –
Cn1ccc2c3nc(-c4ccc(NS(C)(=O)=O)cc4)nc(N4CCOCC4)c3ccc21 [Example 21, N-[4-(7-methyl-4-morpholin-4-yl-7H-pyrrolo[2,3-h]quinazolin-2-yl)phenyl]methanesulfonamide] | 7830 nM | – | > 10000 nM
Cn1ccc2c3nc(-c4cccc(C(N)=O)c4)nc(N4CCOCC4)c3ccc21 [Example 39, 3-(7-methyl-4-morpholin-4-yl-7H-pyrrolo[2,3-h]quinazolin-2-yl)benzamide] | – | 1720 nM | –
Cn1ccc2c3nc(-c4cccc(C#N)c4)nc(N4CCOCC4)c3ccc21 [Example 40, 3-(7-methyl-4-morpholin-4-yl-7H-pyrrolo[2,3-h]quinazolin-2-yl)benzonitrile] | – | 2300 nM | –
